{"source": "patent US20090075318A1", "about": "“USING PHOTO-RESPONSIVE SURFACTANTS TO REVERSIBLY CONTROL PROTEIN AGGREGATION WITH LIGHT ILLUMINATION” (University of Southern California, priority 2007, published 2009)", "key": {"α-chymotrypsin [1]": {"target": "T1, α-chymotrypsin (Bos taurus, UniProt P00766)", "T1 construct": "α-Ch results from the removal of two dipeptides at positions 14-15 and 147-148 in chymotrypsinogen; purchased Sigma C-4129 (lot # 105K7670); host or cells: bovine pancreas", "assay": "SANS of α-chymotrypsin/azoTAB solutions (Guinier, PDDF, shape reconstruction)", "parameters": "species or system bovine", "method": "Small-angle neutron scattering experiments were performed on the 30-m NG3 SANS instruments at NIST. (24) A neutron wavelength of λ=6 Å and a detector offset of 25 cm with two sample-detector distances of 1.33 and 7.0 m were utilized to achieve a Q range of 0.0048-0.46 Å^−1. The net intensities were corrected for the background and empty cell (pure D2O), accounting for the detector efficiency using the scattering from an isotropic scatterer (Plexiglas), and converted to an absolute differential cross section per unit sample volume (in units of cm^−1) using an attenuated empty beam. The data were then corrected for incoherent scattering by subtracting a constant background. The shape-reconstruction algorithm GA_STUCT (11) was used to generate solution conformations, similar to previous studies (10, 11). Beginning with an initial guess of randomly-distributed scattering centers, the program rearranges the position of the scattering centers to best fit the experimental scattering data.\nThe weight-average molecular weight (Mw) of each sample was calculated from the equation\nwhere ρS and ρP are the scattering length densities of the solvent (6.36×10^10 cm^−2) and protein (3.23×10^10 cm^−2), respectively, c is the protein concentration (11.6 mg/mL at pH 3 and 11.4 mg/mL at pH 7), and υ is the protein specific volume (0.734 cm^3/g). (25) I(0)-values were determined from Guinier plots (25) using I(Q)=I(0)exp(−Q^2Rg^2/3), where Rg is the radius of gyration. Guinier plots, generally valid for QRg<1.3, can be influenced by solution structuring due to intermolecular interactions between charged proteins, which becomes increasingly important as Q decreases below 1.5/R (10) (or <0.05 Å^−1 using an α-Ch radius ˜30 Å). Thus, pair distance distribution functions were calculated from the SANS data using the program GNOM (26) according to the equation\nwhere P(r) is related to the probability of two scattering centers (nuclei for SANS) being a distance r+dr apart, and Dmax is the maximum distance between scattering centers within the protein or protein oligomer. I(0)-values were then obtained from the PDDFs through I(0)=4π∫0^D^maxP(r)dr, which has the advantage of utilizing the entire Q-range to determine I(O), as opposed to just the low-Q values as in Guinier analysis (27)."}, "chymotrypsinogen-A": {"target": "T2, chymotrypsinogen-A (Bos taurus, UniProt P00766)", "T2 construct": "Chymotrypsinogen is the zymogen of α-chymotrypsin; purchased Worthington LS005630; host or cells: bovine pancreas", "assay": "SAXS of chymotrypsinogen-A/azoTAB solutions", "parameters": "species or system bovine", "method": "The small-angle X-ray scattering data were measured using the X21 beamline at the National Synchrotron Light Source at the Brookhaven National Laboratory. (28) The X-ray wavelength was set to 1.24 Å with a pair of Si(111) monochromator crystals. The sample-to-detector distance was calibrated to be 1.69 m using a silver behenate standard. To avoid radiation damage, solutions were continuously passed at a flow rate of 60 μL/min through a 1-mm glass capillary housed within an aluminum block containing Plexiglas observation windows. (28) The net intensities were corrected for the background and solvent scattering as well as sample transmission, and were put on an absolute scale by comparison with a calibration standard (10 mg/mL BSA (10))."}, "α-chymotrypsin [2]": {"target": "T1, α-chymotrypsin", "assay": "FT-IR secondary structure of α-Ch/azoTAB mixtures", "parameters": "species or system bovine", "conditions": "addition of trans azoTAB to pure α-Ch, and UV exposure of α-Ch/azoTAB", "method": "Infrared spectra were measured with a Genesis II FT-IR spectrometer (Mattson Instruments). Solutions were loaded in a demountable liquid cell equipped with a circulating water jacket (T=20° C.) between a pair of CaF2 windows using a 50 μm Teflon spacer. A liquid light guide (Oriel, model no. 77557) was used to directly illuminate the sample with UV or visible light for 2 hours prior to and during data collection, as previously described (9). The sample chamber was continuously purged with dry air to eliminate the influence of water vapor. For each spectrum, a 500-scan interferogram was collected with a 2 cm^−1 resolution. The relatively sharp surfactant peaks at ˜1600 cm^−1 were removed by subtracting the spectra measured for a pure surfactant solution under otherwise identical conditions, resulting in corrected spectra that were flat in the region between 2000 and 1750 cm^−1. Fourier self-deconvolution (FSD) was applied to spectra to resolve the overlapping bands in the Amide I region using a band-narrowing factor k=2.0 and a full width at half height of 12.6 cm^−1. Second derivative spectra were obtained with the Savitsky-Golay function for a 3rd order polynomial, using a 13 data point window. […] Difference spectra obtained for pure α-chymotrypsin solutions without surfactant shown no significant absorbance changes (<1% throughout the amide I region)."}, "α-chymotrypsin [3]": {"target": "T1, α-chymotrypsin", "assay": "Congo red staining, optical microscopy of α-Ch/azoTAB solution", "parameters": "species or system bovine", "conditions": "α-Ch/azoTAB solution aged for five days", "method": "Optical microscopy was performed on an Olympus IX71 inverted fluorescence microscope equipped using a 50× lens (Olympus, model SLCPlanFl) and a U-N41027 CAL CRIM C58158 filter cube (Chroma, model 058158). Images were recorded with a Hamamatsu digital CCD camera (model C4742-95). Aliquots (5-10 μL) of the protein-surfactant solution were deposited onto glass slides and dyed with an equal volume of a 400 μM Congo red aqueous solution."}, "α-chymotrypsin [4]": {"target": "T1, α-chymotrypsin", "assay": "TEM of α-Ch/azoTAB solutions", "parameters": "species or system bovine", "conditions": "two weeks (fresh solution) or approx. one year (SANS solution, pH 3, 4.2 mM azoTAB)", "method": "Transmission electron microscopy was performed on a Philips EM420 TEM operating at 80 kV. A drop of protein solution was placed on a carbon-coated grid for 10 seconds and then blotted with filter paper, followed by repeating this procedure with a second drop. The grid was then placed in a freshly made 1 wt % uranyl acetate solution for 30 s."}, "[5]": {"conditions": "cited from earlier work"}}, "note": "Read-outs that look alike come from different tables or passages of the source."}
{"smiles": "CCc1ccc(/N=N/c2ccc(OCC[N+](C)(C)C)cc2)cc1", "note": "[azoTAB, azobenzene-trimethylammonium bromide surfactant]", "values": [{"measurement": "Rg from second Guinier slope (monomer)", "setting": "α-chymotrypsin [1]; Q^2 ~0.01-0.03 Å^-2, α-Ch/azoTAB solutions, pH 3 and pH 7, visible and UV", "result": "17.0-18.2 Å"}, {"measurement": "type of protein self-association", "setting": "α-chymotrypsin [1]; UV light (cis azoTAB)", "result": "monomer-dodecamer equilibrium"}, {"measurement": "Dmax of oligomer (PDDF)", "setting": "α-chymotrypsin [1]; UV light, dodecamer", "result": "~160", "unit": "Å"}, {"measurement": "most probable dimension (PDDF peak)", "setting": "α-chymotrypsin [1]; UV light, dodecamer", "result": "40-50 Å"}, {"measurement": "effective oligomer size n^eff reached with increasing surfactant concentration", "setting": "α-chymotrypsin [1]; UV light, SANS and SAXS data", "result": 12}, {"measurement": "scaling exponent of Rg^n with oligomer Mw", "setting": "α-chymotrypsin [1]; hexamer or dodecamer, compared to monomer Rg", "result": "0.42±0.03"}, {"measurement": "increase in Rg with the addition of azoTAB", "setting": "α-chymotrypsin [1]; monomer Rg, Table 1", "result": 7, "unit": "%"}, {"measurement": "type of protein self-association", "setting": "α-chymotrypsin [1]; visible light (trans azoTAB)", "result": "monomer-hexamer equilibrium"}, {"measurement": "Dmax of oligomer (PDDF)", "setting": "α-chymotrypsin [1]; visible light, hexamer", "result": "~120", "unit": "Å"}, {"measurement": "Rg of chymotrypsinogen (Guinier)", "setting": "chymotrypsinogen-A; 24 mM azoTAB, visible light, 10.0 mg/mL protein", "result": 19.7, "unit": "Å"}, {"measurement": "increase in I(0) relative to the monomer data", "setting": "chymotrypsinogen-A; UV light, 19 mM and 24 mM azoTAB", "result": 12, "unit": "fold"}, {"measurement": "time for complete visible-light induced dissociation of UV-equilibrated samples", "setting": "chymotrypsinogen-A; re-exposure to 434-nm visible light", "result": "several hours"}, {"measurement": "I(0)", "setting": "chymotrypsinogen-A; visible light", "result": "0.2 to 0.25", "unit": "cm⁻¹"}, {"measurement": "FT-IR change on association", "setting": "α-chymotrypsin [2]", "result": "increase in peaks at 1612 and 1685 cm^−1"}, {"measurement": "Congo red staining result", "setting": "α-chymotrypsin [3]", "result": "characteristic Congo red fluorescence as well as “apple green” birefringence"}, {"measurement": "fibril diameter", "setting": "α-chymotrypsin [4]", "result": "ca. 10 nm"}, {"measurement": "isomer ratio", "setting": "[5]; 350-nm UV light", "result": "90/10"}, {"measurement": "trans isomer", "setting": "[5]; in the dark, about 24 hours", "result": "~100", "unit": "%"}, {"measurement": "isomer ratio", "setting": "[5]; visible light, 434 nm", "result": "75/25"}, {"measurement": "cis→trans isomerization kinetics", "setting": "[5]; visible light", "result": "within minutes"}]}
